According to ChEMBL document CHEMBL1201862, “PubChem BioAssay data set” (2004):
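Step 1: Grow cells in 96-well plates. Step 2: Expose to compound for 48 hours at 5 concentrations. Step 3: Interpolate endpoints linearly; if unreached, use highest concentration. GI50 is the concentration that inhibits growth by half.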 The source made the active and inactive calls. No stated cut-off is given here; in the data, active = GI50 up to about 1.1 µM and inactive = higher.

Columns and labels:
Assay in all cases: NCI-60 cell line screen, 48 h
COLO 205 = system: COLO 205
HOP-62 = system: HOP-62
MOLT-4 = system: MOLT-4
HCT-116 = system: HCT-116
ACHN = system: ACHN
UO-31 = system: UO-31
TK-10 = system: TK-10
LOX IMVI = system: LOX IMVI
SK-OV-3 = system: SK-OV-3
HOP-92 = system: HOP-92
SN12C = system: SN12C
SW-620 = system: SW-620
SR = system: SR
HCC 2998 = system: HCC 2998
M14 = system: M14
OVCAR-5 = system: OVCAR-5
SF-268 = system: SF-268
SF-539 = system: SF-539
KM12 = system: KM12
RXF 393 = system: RXF 393

Measured: GI50

COP(C)(=O)/C(Cc1ccccc1)=N\O (stereo unspecified)
inactive: COLO 205 > 100 µM | HOP-62 > 100 µM | MOLT-4 > 100 µM | HCT-116 > 100 µM | ACHN > 100 µM | UO-31 > 100 µM | TK-10 > 100 µM | LOX IMVI > 100 µM | SK-OV-3 > 100 µM | HOP-92 > 100 µM | SN12C > 100 µM | SW-620 > 100 µM | SR > 100 µM | HCC 2998 > 100 µM | M14 > 100 µM | OVCAR-5 > 100 µM

O=C(O)C1(Cc2ccc3c(c2)CCC3)Cc2cc3c(cc2C1)CCC3
inactive: COLO 205 > 100 µM | MOLT-4 > 100 µM | HCT-116 > 100 µM | ACHN > 100 µM | UO-31 > 100 µM | SF-268 > 100 µM | TK-10 > 100 µM | LOX IMVI > 100 µM | SF-539 > 100 µM | SK-OV-3 > 100 µM | KM12 > 100 µM | HOP-92 > 100 µM | SW-620 > 100 µM | SR > 100 µM | HCC 2998 > 100 µM | M14 > 100 µM | OVCAR-5 > 100 µM

COc1cc(CO)c(CC(=O)NCCCc2ccccc2)cc1OC
inactive: COLO 205 > 100 µM | HOP-62 > 100 µM | MOLT-4 > 100 µM | HCT-116 > 100 µM | ACHN > 100 µM | UO-31 > 100 µM | TK-10 > 100 µM | LOX IMVI > 100 µM | KM12 54.6 µM | HOP-92 > 100 µM | SN12C > 100 µM | SW-620 > 100 µM | SR 9.06 µM | HCC 2998 > 100 µM | M14 > 100 µM | OVCAR-5 > 100 µM

Oc1cc(O)c2c(c1)O[C@H](c1ccc(O)c(O)c1)[C@@H](O)C2 [CIANIDANOL]
inactive: COLO 205 > 100 µM | HOP-62 > 100 µM | MOLT-4 > 100 µM | HCT-116 > 100 µM | ACHN > 100 µM | UO-31 > 100 µM | SF-268 > 100 µM | TK-10 > 100 µM | LOX IMVI > 100 µM | SF-539 > 100 µM | KM12 > 100 µM | HOP-92 > 100 µM | SN12C > 100 µM | SW-620 > 100 µM | SR > 100 µM | HCC 2998 > 100 µM | M14 > 100 µM | OVCAR-5 > 100 µM

CCCCc1c2cnccc2c(CCCC)c2c1[nH]c1ccccc12
inactive: COLO 205 10.3 µM | HOP-62 3.85 µM | MOLT-4 2.84 µM | HCT-116 3.59 µM | ACHN 10 µM | UO-31 10.4 µM | SF-268 14.9 µM | TK-10 19.2 µM | LOX IMVI 13.7 µM | SF-539 3.42 µM | SK-OV-3 27.4 µM | KM12 8.38 µM | HOP-92 12.8 µM | SN12C 18 µM | SW-620 12.9 µM | HCC 2998 23.9 µM | M14 15.7 µM | OVCAR-5 44.9 µM | RXF 393 7.13 µM

C=CC[N+]12CN3CN(CN(C3)C1)C2
inactive: COLO 205 25.9 µM | HOP-62 > 100 µM | MOLT-4 33.4 µM | HCT-116 19 µM | ACHN 21.3 µM | UO-31 21 µM | SF-268 24.6 µM | TK-10 22.6 µM | LOX IMVI 27 µM | SF-539 16.9 µM | SK-OV-3 > 100 µM | KM12 29 µM | HOP-92 23.8 µM | SN12C 23.4 µM | SW-620 5.94 µM | HCC 2998 24 µM | M14 25.8 µM | OVCAR-5 23.2 µM | RXF 393 18.5 µM

C=Cc1cnc([N+](=O)[O-])n1C
inactive: COLO 205 46.5 µM | HOP-62 92 µM | MOLT-4 53.8 µM | HCT-116 57.1 µM | ACHN 52 µM | UO-31 27.4 µM | SF-268 46.7 µM | TK-10 36.1 µM | LOX IMVI 87.5 µM | SF-539 74.1 µM | SK-OV-3 71 µM | KM12 36.2 µM | HOP-92 35.8 µM | SN12C > 100 µM | SW-620 62.1 µM | SR 20.7 µM | HCC 2998 42.7 µM | M14 65.5 µM | OVCAR-5 > 100 µM

COc1cccc(/C=C2\C(=O)N(C(=O)Cc3ccccc3)N=C2C)c1
inactive: COLO 205 > 100 µM | HOP-62 > 100 µM | MOLT-4 > 100 µM | HCT-116 > 100 µM | ACHN > 100 µM | UO-31 > 100 µM | SF-268 > 100 µM | TK-10 > 100 µM | LOX IMVI > 100 µM | SF-539 > 100 µM | KM12 > 100 µM | SN12C > 100 µM | SW-620 > 100 µM | SR > 100 µM | HCC 2998 > 100 µM | M14 > 100 µM | OVCAR-5 > 100 µM
